According to patent publication EP3494999A1, “PSMA LIGANDS FOR IMAGING AND ENDORADIOTHERAPY” (Technische Universität München, priority 2017, dated 2019):
Numbered stars: 1 amine (or outer) side, 2 acyl side, 3 side chain; on linkers, the order of the positions; unused ones are H or OH. Square brackets hold non-standard residues; d marks the D form. Side chains are listed from the residue outwards. Peptide text beside a SMILES is read from it. * marks the point of attachment. X2 = O=C(O)CC[C@H](NC(=O)N[C@@H](CCC(=O)N[C@H](CCCN*)C(=O)O)C(=O)O)C(=O)O; X1 = O=C(O)CC[C@H](NC(=O)N[C@@H](CCCCNC(=O)CCCCCCC(=O)*)C(=O)O)C(=O)O; DOTAGA = O=C(O)CN1CCN(CC(=O)O)CCN(C(CCC(=O)*)C(=O)O)CCN(CC(=O)O)CC1; dPhe(4-NH2) = Nc1ccc(C[C@@H](N)C(=O)O)cc1; Phe(4-NH2) = Nc1ccc(C[C@H](N)C(=O)O)cc1; d2Nal = N[C@H](Cc1ccc2ccccc2c1)C(=O)O; Suc = O=C(CCC(=O)[*:2])[*:1]

Experiments:
[1] = molecular target: T1, human serum albumin (Homo sapiens, UniProt P02768); test: Literature HSA binding of the reference substances used to calibrate the HSA column; details: logarithmic K of human serum albumin binding, from the literature HSA%
T1 sequence (P02768 25-609): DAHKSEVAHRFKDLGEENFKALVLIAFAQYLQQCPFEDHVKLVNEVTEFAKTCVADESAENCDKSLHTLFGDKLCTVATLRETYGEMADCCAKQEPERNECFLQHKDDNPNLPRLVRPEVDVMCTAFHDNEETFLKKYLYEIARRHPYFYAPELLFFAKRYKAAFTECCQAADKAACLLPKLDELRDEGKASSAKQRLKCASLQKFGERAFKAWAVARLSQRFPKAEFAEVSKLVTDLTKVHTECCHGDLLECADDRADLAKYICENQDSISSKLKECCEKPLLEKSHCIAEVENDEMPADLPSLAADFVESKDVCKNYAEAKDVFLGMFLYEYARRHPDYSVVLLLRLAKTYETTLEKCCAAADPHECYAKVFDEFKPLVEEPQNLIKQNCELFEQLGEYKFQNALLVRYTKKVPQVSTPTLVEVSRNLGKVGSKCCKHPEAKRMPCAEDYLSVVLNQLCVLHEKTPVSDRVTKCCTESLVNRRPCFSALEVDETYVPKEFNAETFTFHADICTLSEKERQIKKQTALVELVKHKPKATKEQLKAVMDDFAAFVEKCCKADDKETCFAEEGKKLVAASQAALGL
Procedure: (§1) The mobile phase was freshly prepared for each experiment and only used for one day. The column was kept at room temperature and each run was stopped after detection of the signal to reduce the acquisition time. All substances were dissolved in a 0.5mg/ml concentration in 50% 2-Propanol and 50% 50mM pH 6.9 ammonium acetate buffer. […] All nine reference substances were injected consecutively to establish a non-linear regression with OriginPro 2016G. […] Table 1: Reference substances used for the calibration of the HSA-column.

[2] = molecular target: T1, human serum albumin; details: literature value of human serum albumin binding (Valko et al. or Yamazaki et al.); cited from earlier work
[3] = type: physicochemical
Procedure: To a volume of 500 µL n-octanol, 0.5 to 1.0 MBq of the radiolabeled PSMA inhibitor in 500 µL PBS (pH = 7.4) was added and rigorously vortexted for 3 min (n = 6). For quantitative phase separation, the mixture was centrifuged at 6,000 g for 5 min (Biofuge 15, Heraus Sepatech, Osterode, Germany).

[4] = molecular target: T2, PSMA (Homo sapiens, UniProt Q04609); test: Determination of IC50: competitive binding against ([125I]I-BA)KuE on cells; set-up: endogenous in cells; LNCaP is named only for the xenografts; details: natLu complexes; displacement of ([125I]I-BA)KuE, 60 min on ice, HBSS (1% BSA)
T2 sequence (Q04609 whole entry): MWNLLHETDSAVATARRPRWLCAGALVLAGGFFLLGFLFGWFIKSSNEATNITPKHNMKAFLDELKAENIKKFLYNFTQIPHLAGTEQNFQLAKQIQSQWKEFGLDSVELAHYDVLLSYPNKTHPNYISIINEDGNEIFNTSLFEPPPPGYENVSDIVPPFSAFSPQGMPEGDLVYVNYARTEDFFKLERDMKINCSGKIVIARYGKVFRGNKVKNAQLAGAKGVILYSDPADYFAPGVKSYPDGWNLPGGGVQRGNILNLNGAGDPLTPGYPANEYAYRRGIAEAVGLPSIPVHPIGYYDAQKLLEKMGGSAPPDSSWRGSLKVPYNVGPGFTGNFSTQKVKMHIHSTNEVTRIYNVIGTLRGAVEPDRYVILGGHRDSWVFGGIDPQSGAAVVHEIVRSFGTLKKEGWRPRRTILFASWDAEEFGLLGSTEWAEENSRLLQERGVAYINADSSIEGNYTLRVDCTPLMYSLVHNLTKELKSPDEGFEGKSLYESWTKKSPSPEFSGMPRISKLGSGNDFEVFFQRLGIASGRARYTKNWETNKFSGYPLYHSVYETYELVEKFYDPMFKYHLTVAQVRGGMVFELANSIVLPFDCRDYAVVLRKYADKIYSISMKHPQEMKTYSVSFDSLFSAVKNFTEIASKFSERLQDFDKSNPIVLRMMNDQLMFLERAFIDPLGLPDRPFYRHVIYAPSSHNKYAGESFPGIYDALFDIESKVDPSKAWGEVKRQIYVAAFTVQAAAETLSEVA
Procedure: The corresponding ^natLu^III-complexes were prepared from a 2 mM aqueous solution of the PSMA inhibitor with a 2.5 molar excess of LuCl3 (20 mM solution), heated to 95 °C for 30 min. After cooling, the ^natLu^III-chelate formation was confirmed using HPLC and MS. […] Calculated monoisotopic mass (C67H92N11O23 Lu) = 1,593.6 found: m/z = 1,595.0 [M+H]^+, 798.2 [M+2H]^2+. [^natLu]DOTAGA-(4-NH2)f-y-nal-k-KuE ([^natLu]PSMA-5): HPLC (10 to 60% B in 15 min.): tR = 9.0 min K' = 3.5. Calculated monoisotopic mass (C76H102N13O24 Lu) = 1,755.7 found: m/z = 1,756.4 [M+H]^+, 879.0 [M+2H]^2+. [^natLu]DOTAGA-(4-NH2)F-y-nal-k-KuE ([^natLu]PSMA-6): HPLC (10 to 60% B in 15 min.): tR = 9.1 min K' = 3.6. Calculated monoisotopic mass (C76H102N13O24 Lu) = 1,755.7 found: m/z = 1,756.6 [M+H]^+, 878.8 [M+2H]^2+. [^natLu]DOTAGA-y-nal-k(Suc-(HO-δ-orn-γ-EuE))-OH ([^natLu]PSMA-7): HPLC (10 to 60 % B in 15 min): tR = 7.8 min K' = 2.9. Calculated monoisotopic mass (C67H89N12O26 Lu): 1,652.5 found: m/z = 1,653.9 [M+H]^+. [^natLu]DOTAGA-(4-NH2)f-y-nal-k(Suc-(HO-δ-orn-γ-EuE))-OH ([^natLu]PSMA-8): HPLC (10 to 60 % B in 15 min): tR = 7.3 min K' = 2.7. Calculated monoisotopic mass (C67H99N14O27Lu): 1,814.6 found: m/z = 1,815.9 [M+H]^+, 908.3 [M+2H]^2+. [^natLu]DOTAGA-(4-NH2)F-y-nal-k(Suc-(HO-δ-orn-γ-EuE))-OH ([^natLu]PSMA-9): HPLC (10 to 60 % B in 15 min): tR = 7.2 min K' = 2.6. Calculated monoisotopic mass (C67H99N14O27Lu): 1,814.6 found: m/z = 1,815.6 [M+H]^+, 908.3 [M+2H]^2+. [^natLu]DOTAGA-y-nal-k(Glut-(l-f)-KuE) ([^natLu]PSMA-10): HPLC (25 to 55% B in 15 min): tR = 10.6 min K' = 4.9. Calculated monoisotopic mass (C73H94IN12O24Lu): 1,825.5 found: m/z = 1,826.5 [M+H]^+, 913.8 [M+2H]^2+. [^natLu]DOTAGA-(4-NH2)f-y-nal-k(Glut-(l-f)-KuE) ([^natLu]PSMA-11): HPLC (10 to 60% B in 20 min): tR = 9.7 min K' = 3.9. Calculated monoisotopic mass (C82H104IN14O25Lu): 1,986.6 found: m/z = 1,987.5 [M+H]^+, 994.3 [M+2H]^2+.
The reaction solution was incubated for 10 min at RT, loaded on a cartridge and rinsed with 10 mL water (C18 Sep Pak Plus cartridge, preconditioned with 10 mL MeOH and 10 mL water). After elution with 2.0 mL of a 1:1 mix (v/v) of EtOH/MeCN, the radioactive solution was evaporated to dryness under a gentle nitrogen stream and treated with 200 µL TFA for 30 min with subsequent evaporation of TFA.
After removal of the culture medium, the cells were treated once with 500 µL of HBSS (Hank's balanced salt solution, Biochrom, Berlin, Germany, with addition of 1% bovine serum albumin (BSA)) and left 15 min on ice for equilibration in 200 µL HBSS (1% BSA). […] All experiments were performed at least three times for each concentration. After 60 min incubation on ice, the experiment was terminated by removal of the medium and consecutive rinsing with 200 µL of HBSS. The media of both steps were combined in one fraction and represent the amount of free radioligand. Afterwards, the cells were lysed with 250 µL of 1.0 M NaOH and united with the 200 µL HBSS of the following wash step. Quantification of bound and free radioligand was accomplished in a γ-counter.

[5] = molecular target: T2, PSMA; test: Internalization of radiolabeled PSMA inhibitors into cells (PMPA blockade); type: cell-based; set-up: endogenous in cells; LNCaP is named only for the xenografts; details: 177Lu-labeled inhibitors, 37°C; reference basis of the % not stated
Procedure: The ^177Lu-labeled compounds, for in vitro studies, were prepared as previously described (Sosabowski, J.K. and S.J. Mather, Conjugation of DOTA-like chelating agents to peptides and radiolabeling with trivalent metallic isotopes. Nat. Protocols, 2006. 1(2): p. 972-976) with minor modifications and used without further purification. In short, to a reaction volume of 10 µL 1.0 M NH4OAc buffer pH = 5.9 was added 0.75 to 1.0 nmol tracer (7.5 to 10 µL), 10 to 40 MBq ^177LuCl3 (Specific Activity (AS) > 3000 GBq/mg, 740 MBq/mL, 0.04 M HCl, ITG, Garching, Germany) and finally filled up to 100 µL with trace-pure Water (Merck, Darmstadt, Germany). The reaction mixture was heated for 30 min at 95°C and the radiochemical purity was determined using Radio-TLC.
[…] Each well was treated with either 25 µL of either DMEM-F12 (5% BSA) or a 100 µM PMPA solution for blockade. Next, 25 µL of the respective ^68Ga-and ^177Lu-labeled PSMA inhibitors (2.0 nM / 5.0 nM) was added and the cells incubated at 37°C for 5, 15, 30 and 60 min, respectively. The experiment was terminated by placing the 24-well plate on ice for 3 min and consecutive removal of the medium. Each well was rinsed with 250 µL HBSS and the fractions from these first two steps combined, representing the amount of free radioligand. Removal of surface bound activity was accomplished by incubation of the cells with 250 µL of ice-cold PMPA (10 µM in PBS) solution for 5 min and rinsed again with another 250 µL of ice-cold PBS. The internalized activity was determined by incubation of the cells in 250 µL 1.0 M NaOH and the combination with the fraction of a subsequent wash step with 250 µL 1.0 M NaOH. Each experiment (control and blockade) was performed in triplicate for each time point. Free, surface bound and internalized activity was quantified in a γ-counter.

[6] = molecular target: T3, human serum albumin (HSA) (Homo sapiens, UniProt P02768); type: in vitro ADME
T3 construct: purchased Daicel Chemical Industries, purchased from Chiral Technologies Europe (France)
T3 sequence (P02768 25-609): as the sequence (P02768 25-609) above
Excerpt: The Fmoc-(9-fluorenylmethoxycarbonyl-) and all other protected amino acid analogs were purchased from Bachem (Bubendorf, Switzerland) or Iris Biotech (Marktredwitz, Germany). […] The tritylchloride polystyrene (TCP) resin was obtained from PepChem (Tubingen, Germany). Chematech (Dijon, France) delivered the chelator DOTAGA-anhydride. All necessary solvents and other organic reagents were purchased from either Alfa Aesar (Karlsruhe, Germany), Sigma-Aldrich (Munich, Germany) or VWR (Darmstadt, Germany). Solid phase synthesis of the peptides was carried out by manual operation using an Intelli-Mixer syringe shaker (Neolab, Heidelberg, Germany). […] Analysis of the peptides was performed by applying different gradients of 0.1% (v/v) trifluoroacetic acid (TFA) in H2O (solvent A) and 0.1% TFA (v/v) in acetonitrile (MeCN) (solvent B) with a constant flow of 1 mL/min (specific gradients are cited in the text). […] Human serum albumin (HSA) binding was determined using a Chiralpak HSA 50 x 3 mm 5µm Analytical Column connected to a Chiralpak HSA 10 x 3 mm 5µm Guard Cartridge (Daicel Chemical Industries) purchased from Chiral Technologies Europe (France). Nonlinear regression for the HSA binding was performed using OriginPro 2016G. Both retention times tR as well as the capacity factors K' are cited in the text. […] Radioactivity was detected through connection of the outlet of the UV-photometer to a Nal(TI) well-type scintillation counter from EG&G Ortec (Munich, Germany). […] ESI-mass spectra were acquired on an expression^L CMS mass spectrometer (Advion Ltd., Harlow, UK) and on a Varian 500-MS IT mass spectrometer (Agilent Technologies, Santa Clara, USA). For the HSA binding experiment a Chiralpak HSA 50 x 3 mm 5µm Analytical Column, (Daicel Chemical Industries, LTD) connected to a Chiralpak HSA 10 x 3 mm 5µm Guard Cartridge (Daicel Chemical Industries; Chiral Technologies Europe) was used.
as §1

Row | Compound | Log K HSA [1] | Lit. HSA% [2] [%] | logP [3] | IC50 [4] [nM] | Internalization [%] [5] [%] | HSA [%] [6] [%]
1 | Nc1ccccc1 [Aniline] | -0.79 | 14.06 | – | – | – | –
2 | CCCN(CCC)S(=O)(=O)c1ccc(C(=O)O)cc1 [Probenecid] | – | 95.00 | – | – | – | –
3 | Nc1ccc(C[C@@H](NC(=O)CCC(C(=O)O)N2CCN(CC(=O)O)CCN(CC(=O)O)CCN(CC(=O)O)CC2)C(=O)N[C@H](Cc2ccc(O)cc2)C(=O)N[C@H](Cc2ccc3ccccc3c2)C(=O)N[C@H](CCCCNC(=O)CCCCCCC(=O)NCCCC[C@H](NC(=O)N[C@@H](CCC(=O)O)C(=O)O)C(=O)O)C(=O)O)cc1 (stereo partly drawn) [[^nat/177Lu]PSMA-5, DOTAGA-(4-NH2)f-y-nal-k-KuE, metal not drawn] ({DOTAGA}-[dPhe(4-NH2)][dY][d2Nal][dK](X1)-OH) | – | – | -4.11 ± 0.06 | 5.8 ± 1 | 111.3 ± 11.1 | –
4 | Nc1ccc(C[C@H](NC(=O)CCC(C(=O)O)N2CCN(CC(=O)O)CCN(CC(=O)O)CCN(CC(=O)O)CC2)C(=O)N[C@H](Cc2ccc(O)cc2)C(=O)N[C@H](Cc2ccc3ccccc3c2)C(=O)N[C@H](CCCCNC(=O)CCC(=O)NCCC[C@@H](NC(=O)CC[C@H](NC(=O)N[C@@H](CCC(=O)O)C(=O)O)C(=O)O)C(=O)O)C(=O)O)cc1 (stereo partly drawn) [[^nat/177Lu]PSMA-9, DOTAGA-(4-NH2)F-y-nal-k(Suc-(HO-δ-orn-γ-EuE))-OH, metal not drawn] ({DOTAGA}-[Phe(4-NH2)][dY][d2Nal][dK]([Suc-X2])-OH) | – | – | -4.01 ± 0.11 | 2.5 ± 0.6 | – | –
5 | Oc1ccccc1 [Phenol] | -0.59 | 20.69 | – | – | – | –
6 | Nc1ccc(C[C@@H](NC(=O)CCC(C(=O)O)N2CCN(CC(=O)O)CCN(CC(=O)O)CCN(CC(=O)O)CC2)C(=O)N[C@H](Cc2ccc(O)cc2)C(=O)N[C@H](Cc2ccc3ccccc3c2)C(=O)N[C@H](CCCCNC(=O)CCC(=O)NCCC[C@@H](NC(=O)CC[C@H](NC(=O)N[C@@H](CCC(=O)O)C(=O)O)C(=O)O)C(=O)O)C(=O)O)cc1 (stereo partly drawn) [[^nat/177Lu]PSMA-8, DOTAGA-(4-NH2)f-y-nal-k(Suc-(HO-δ-orn-γ-EuE))-OH, metal not drawn] ({DOTAGA}-[dPhe(4-NH2)][dY][d2Nal][dK]([Suc-X2])-OH) | – | – | -4.02 ± 0,25 | 2.5 ± 0.6 | 207.3 ± 8.5 | –
7 | O=C(O)CC[C@H](NC(=O)N[C@@H](CCC(=O)N[C@H](CCCNC(=O)CCC(=O)NCCCC[C@@H](NC(=O)[C@@H](Cc1ccc2ccccc2c1)NC(=O)[C@@H](Cc1ccc(O)cc1)NC(=O)CCC(C(=O)O)N1CCN(CC(=O)O)CCN(CC(=O)O)CCN(CC(=O)O)CC1)C(=O)O)C(=O)O)C(=O)O)C(=O)O (stereo partly drawn) [[^nat/177Lu]PSMA-7, DOTAGA-y-nal-k(Suc-(HO-δ-orn-γ-EuE))-OH, metal not drawn, reference compound] | – | – | – | 3.1 ± 1 | 216.2 ± 9.2 | –
8 | O=C(O)CC[C@H](NC(=O)N[C@@H](CCCCNC(=O)CCCCCCC(=O)NCCCC[C@@H](NC(=O)[C@@H](Cc1ccccc1)NC(=O)[C@@H](Cc1ccc(O)c(I)c1)NC(=O)CCC(C(=O)O)N1CCN(CC(=O)O)CCN(CC(=O)O)CCN(CC(=O)O)CC1)C(=O)O)C(=O)O)C(=O)O (stereo partly drawn) [[^nat/177Lu]PSMA-1, DOTAGA-(l-y)-f-k-KuE, metal not drawn, reference compound] | – | – | -4.12 ± 0.1 | – | 75.5 ± 1.6 | 78.6
